Results taken from US8524861B2, “Treatment of bacterial infections” (priority 2004, dated 2013).
pIC50: −log10 of the molar value. Where no end group is shown, it is not given here.

Experiments:
Assay type in all cases: cell-based
[1] = system: Staphylococcus aureus, Pseudomonas aeruginosa, and Streptococcus pneumoniae; experiment: Antibacterial activity, overall statements over the test bacteria
From the text: The inventors conducted exhaustive experiments to assess the antibacterial activity of peptides from apolipoproteins and derivatives thereof. Peptides and derivatives from ApoE and ApoB were a particular focus. […] Example 1 illustrates the efficacy of the polypeptides according to the invention compared to apoE141-149 and apoB3359-3367 (i.e. non-tandem repeats) and other peptides derived from apolipoproteins.
The activity of polypeptides in accordance with the invention can be seen in Tables 5, 6, 7 and 8.
(§1) The peptides were examined for antibacterial efficacy against Staphylococcus aureus. To test the efficacy of peptides, dilutions of test peptides or PBS (for use as a control) were prepared in LB broth, and 100 μl aliquots of these placed in 96-well plates. A vial of planktonic bacterial stock was thawed in a 37° C. incubator and diluted to the level previously determined which would produce log phase growth after overnight incubation (see above). 25 μl of this bacterial dilution was then added to the test wells (some wells containing LB broth without peptide were left without any bacterial inoculation, these being used as a blank). After overnight growth, the concentration of bacteria in individual wells was assessed by measuring absorbance at 620 nm, in a microplate spectrophotometer. The average absorbance of wells for specific concentrations of peptides was calculated, and from this the percentage inhibition (relative to untreated wells) was also calculated and plotted against concentration (along with an estimate of error on that % inhibition).
(§2) The inventor constructed an expanded library of peptides derived from either apolipoprotein B or apolipoprotein E in order to further evaluate polypeptides in accordance with the invention. Further experiments were then conducted to investigate the antibacterial activity of this peptide library against the bacteria P. aeroginosa, S. aureus and S. pneumoniae. The methods used to determine the IC50 values for each peptide were as described in the Example 1.

[2] = system: Staphylococcus aureus (ATCC strain 6538P); settings: for pIC50: ATCC strain 6538P; for Activity against Staphylococcus, in particular S. aureus, in words: summary in description
Description: (§3) Bacterial Stocks—ATCC derived stock bacteria were obtained from Oxoid Limited. Pseudomonas aeruginosa (ATCC strain 9027) or Staphylococcus aureus (ATCC strain 6538P) were obtained in ‘Cultiloop’ format. Stocks were prepared by inoculating 20 ml of LB broth with a single Cultiloop, and incubating overnight at 37° C. Cells present after overnight incubation were harvested by removing larger aggregates by centrifugation (3000 g, 10 minutes), and withdrawing 16 ml of the supernatant, which was likely to contain mainly planktonic bacteria. To this, 4 ml of sterile glycerol was added (the latter having been sterilised by autoclaving). The resultant suspension was divided between 15× 1 ml cryovials before freezing at −85° C.
(§4) Preliminary experiments were carried out to estimate the amount to dilute bacterial stocks which when on addition of 25 μl of diluted stock to 100 μl of fresh LB broth would result in bacteria in log phase growth after overnight incubation at 37° C.
as §1, §2

[3] = system: Pseudomonas aeruginosa (ATCC strain 9027); settings: for pIC50: ATCC strain 9027; for Effectiveness against Pseudomonadales, in particular P. aeruginosa, in words: summary in description
Description: as §3, §4, §1
Peptides in accordance with the invention were also examined for antibacterial efficacy against Pseudomonas aeruginosa using the same technique as described above to calculate the IC50 values.
Points were obtained by dividing the average for six treated wells by the average for six untreated wells, and bars show an estimate of the error for these calculated values.
as §2

Streptococcus pneumoniae = system: Streptococcus pneumoniae
Description: as §1, with “inhibition). […] The inventor constructed an expanded library of peptides derived from either apolipoprotein B or apolipoprotein E in order to further evaluate polypeptides in accordance with the invention. Further experiments were then conducted to investigate the antibacterial activity of this peptide library against the bacteria P. aeroginosa, S. aureus and S. pneumoniae. The methods used to determine the IC50 values for each peptide were as described in the Example 1.” for “inhibition).”

| Substance | Antibacterial activity, in words, bacterium not specified [1] | pIC50 [2] | pIC50 [3] | Effectiveness against Pseudomonadales, in particular P. aeruginosa, in words [3] | pIC50 (Streptococcus pneumoniae) | Activity against Staphylococcus, in particular S. aureus, in words [2] |
| --- | --- | --- | --- | --- | --- | --- |
| Ac-LRKLRKRLLLRKLRKRWW-NH2 (N-terminus and C-terminus assumed) [MU_112] | particularly effective | 5.15 | 5.15 | – | – | – |
| Ac-LRKLRKRLLRLRKLRKRLLR-NH2 (N-terminus and C-terminus assumed) [MU_82] | particularly effective | 4.89 | – | particularly effective | – | – |
| Ac-LRKLRKRLLWRKWRKRLL-NH2 (N-terminus and C-terminus assumed) [MU_113] | – | 4.96 | – | particularly effective | – | – |
| Ac-LRKLRKRLLWRKWRKRWW-NH2 (N-terminus and C-terminus assumed) [MU_111] | – | 5.15 | 4.90 | – | – | – |
| Ac-LRKLRKRLRKLRKR-NH2 (N-terminus and C-terminus assumed) [GIN 08] | – | – | 5.04 | particularly effective | < 4.28 | – |
| Ac-LRKRLLLRKLRKRLL-NH2 (N-terminus and C-terminus assumed) [GIN 02] | – | – | 5.07 | particularly effective | – | – |
| Ac-WRKLRKRLLLRKLRKRLL-NH2 (N-terminus and C-terminus assumed) [MU_115] | particularly effective | 5.05 | 5.52 | particularly effective | – | – |
| Ac-WRKWRKRLLLRKLRKRLL-NH2 (N-terminus and C-terminus assumed) [MU_114] | – | 5.26 | – | particularly effective | – | particularly active |
| CRKCRKRCCCRKCRKRCC [MU_12] | do not show antibacterial activity | – | – | – | – | – |
| DRKDRKRDDDRKDRKRDD [MU_3] | do not show antibacterial activity | – | – | – | – | – |
| FRKFRKRFFFRKFRKRFF-NH2 (C-terminus assumed) [MU_7] | particularly effective | 4.96 | 5.22 | – | – | – |
| IRKIRKRIIIRKIRKRII-NH2 (C-terminus assumed) [MU_8] | – | < 4.28 | 4.35 | – | – | – |
| LLRKRLKRLLLRKRLKRL-NH2 (C-terminus assumed) [MU_24] | particularly effective | 4.47 | 5.15 | – | – | – |
| LRKLRKRLL [apoE141-149, reference compound] | no detectable antibacterial activity | – | – | – | – | – |
| LRKLRKRLL-NH2 (C-terminus assumed) [MU_46] | – | – | 4.66 | – | < 4.28 | – |
| LRKLRKRLLLRK [GIN 05] | do not show antibacterial activity | – | – | – | – | – |
| LRVRLASHLRKLRKRLLRDADDLQKRLAVY LRVRLASHLRKLRKRLLRDADDLQKRLAVY (LRVRLASHLRKLRKRLLRDADDLQKRLAVYLRVRLASHLRKLRKRLLRDADDLQKRLAVY) [tandem repeat of Azuma's peptide, 60-mer dimer of apoE133-162] | improved antibacterial efficacy | – | – | – | – | – |
| MRKLRKRLMMRKLRKRLM-NH2 (C-terminus assumed) [MU_43] | particularly effective | – | 4.77 | – | – | – |
| MRKMRKRMMMRKMRKRMM-NH2 (C-terminus assumed) [MU_5] | – | < 4.28 | < 4.28 | – | – | – |
| RKRGWKWRKRGWKW-NH2 (C-terminus assumed) [MU_73] | particularly effective | 4.66 | 4.37 | – | – | – |

| Substance | Antibacterial activity, in words, bacterium not specified [1] | pIC50 [2] | pIC50 [3] | Effectiveness against Pseudomonadales, in particular P. aeruginosa, in words [3] | pIC50 (Streptococcus pneumoniae) | Activity against Staphylococcus, in particular S. aureus, in words [2] |
| --- | --- | --- | --- | --- | --- | --- |
| RLTRKRGLK [apoB3359-3367, monomeric 9-mer of apolipoprotein B, reference compound] | no detectable antibacterial activity | – | – | – | – | – |
| RLTRKRGRLTRKRG-NH2 (C-terminus assumed) [MU_74] | – | < 4.28 | 4.51 | – | – | – |
| RWRKRGRKRWRKRGRK-NH2 (C-terminus assumed) [MU_69] | – | 4.57 | < 4.28 | – | – | – |
| RWRKRWRKRWRKRWRK-NH2 (C-terminus assumed) [MU_37] | particularly effective | 4.46 | 4.64 | – | – | – |
| RWRKRWRKRWRKRWRK-NH2 (C-terminus assumed) [MU_71] | – | 4.73 | 4.55 | – | – | – |
| RWRKRWRWRKRWRWRKRW-NH2 (C-terminus assumed) [MU 84] | – | 4.82 | 4.28 | – | – | – |
| WRKRWWRWRKRWWR-NH2 (C-terminus assumed) [MU_81] | – | 4.70 | 4.55 | – | – | – |
| WRKWRKFFFRKWRKRWW-NH2 (C-terminus assumed) [MU_116] | – | 5.19 | 4.85 | – | – | – |
| WRKWRKRFFWRKWRKRFF-NH2 (C-terminus assumed) [MU_61] | particularly effective | 5.30 | 5.52 | particularly effective | – | particularly active |
| WRKWRKRWRKWRKR-NH2 (C-terminus assumed) [GIN 32] | – | – | 5.30 | – | – | – |
| WRKWRKRWRKWRKRW-NH2 (C-terminus assumed) [MU_59] | particularly effective | 4.96 | 5.12 | – | – | – |
| WRKWRKRWWFRKFRKRFF-NH2 (C-terminus assumed) [MU_117] | – | 5.15 | 5.00 | – | – | – |
| WRKWRKRWWFRKWRKRWW-NH2 (C-terminus assumed) [MU_60] | particularly effective | 5.22 | 4.90 | – | – | particularly active |
| WRKWRKRWWRKWRKRWW-NH2 (C-terminus assumed) [MU_58] | particularly effective | 5.10 | 5.12 | – | – | particularly active |
| WRKWRKRWWRWRKWRKRWWR-NH2 (C-terminus assumed) [MU_83] | particularly effective | 5.05 | 4.82 | – | – | – |
| WRKWRKRWWWRKWRKRWW-NH2 (C-terminus assumed) [MU_4] | particularly effective | – | – | – | – | particularly active |
| WRWKKKWRKWRWKKKWRK-NH2 (C-terminus assumed) [MU_26] | – | 4.28 | 4.28 | – | – | – |
| WRWRRRWRKWRWRRRWRK-NH2 (C-terminus assumed) [MU_25] | – | < 4.28 | < 4.28 | – | – | – |
| YRKYRKRYYYRKYRKRYY-NH2 (C-terminus assumed) [MU_6] | – | – | < 4.28 | – | – | particularly active |
| modified apoB3359-3367: modified form of the apoB3359-3367 9-mer; sequence only in the drawing of Table 1 (LRTRKRGRK) [reference compound] | no detectable antibacterial activity | – | – | – | – | – |
